Laboratory results published in article PMC3214022, “Plasmodium falciparum Parasites Are Killed by a Transition State Analogue of Purine Nucleoside Phosphorylase in a Primate Animal Model” (PLoS ONE, 2011).

How the values were obtained:
[1] = tested on: human erythrocytes; assay: Polyamine and purine levels in cultured cells after BCX4945 treatment (HPLC, UPLC/MS/MS); assay type: cell-based; conditions: uninfected erythrocytes, 5 µM BCX4945, 24 h
Protocol: Polyamines from 0.5 M PCA extracts were analyzed as the dansyl-derivatives by HPLC/fluorescence on a Waters Millennium system. Protein concentration was determined with a bicinchoninic acid (BCA) protein assay kit according to the manufacturer's instructions (Pierce) using BSA as a standard. Data from biological samples were normalized to the protein content.
(§1) Samples from blood cells, plasma and media were extracted and analyzed in duplicate. […] Samples were incubated for 20 min at 4 °C and neutralized with 5 M KOH at 10∶1 (v/v, HClO4/KOH) for 20 min at 4 °C. Plates were centrifuged (10 min at 4,000 rpm, 4°C) and supernatants were filtered through a MultiScreen® Filter Plate with Ultracel®-10 Membrane (Millipore). Metabolite and inhibitor levels were quantified by UPLC/MS/MS using a Xevo TQ mass spectrometer (Waters). […] Quantitative determination was performed in ESI positive-ion mode using multiple-reaction monitoring (MRM) mode. The ESI capillary voltage was 0.3 kV, source temperature was set at 150 °C and desolvation temperature at 450 °C. Data acquisition and analysis were carried out by MassLynx V4.1 and QuanLynx software (Waters). The concentration of the metabolites was calculated by interpolation of the observed analyte/internal standard peak-area ratio with the corresponding calibration curve.

[2] = tested on: purine salvage (hypoxanthine, inosine, adenosine, 2′-deoxyguanosine); assay: Purine metabolites in plasma and blood cells of treated Aotus monkeys (UPLC-MS/MS); assay type: in vivo, Aotus lemurinus lemurinus
Protocol: as §1
(§2) Laboratory bred Aotus lemurinus lemurinus monkeys (0.75–0.89 kg) were maintained as described. […] Blood samples were collected before the treatment started (t = 0), 0.05 h, 0.5 h, 1 h, 2 h, 6 h, 24 h, 48 h, and 6, 12 and 18 days after the first dose from each monkey and processed as described below. Pharmacokinetic parameters were calculated using PKSolver. For efficacy studies, Aotus monkeys were inoculated intravenously with 5×10^6 parasites of the FVO strain of P. falciparum in an approved treatment protocol. […] Parasitaemia was determined by Giemsa-stained thick blood smears prepared daily from the marginal ear vein [41]. Blood samples were collected from each monkey and transferred to tubes containing lithium heparin, centrifuged and both plasma and blood cells were frozen at −80 °C until analysis. Animals received a physical examination and blood chemistry profiles were monitored after treatment as described previously. Any monkey not responding appropriately to treatment was cured of its infection with mefloquine (40 mg kg^−1). […] The day of clearance is defined as the first of three consecutive days in which the thick blood films are parasite negative. The day of recrudescence is the first of three consecutive days of positive thick blood films after a period of clearance. Suppression is defined as a transient decrease in the parasite count post-treatment without clearance.

[3] = in vivo; parameters: species or system Aotus lemurinus lemurinus
Protocol: as §1, §2

[4] = tested on: P. falciparum cultures; assay: Inosine and hypoxanthine rescue assay; assay type: cell-based, Plasmodium falciparum; conditions: 15 µM BCX4945, hypoxanthine or inosine up to 200 µM, 72 h
Protocol: Synchronized, schizont stage parasites were washed in purine-free medium to remove excess hypoxanthine and inoculated into freshly drawn erythrocytes that had been washed and resuspended in purine-free medium. The schizont stage parasites were cultured in purine-free medium for 24 h to further reduce hypoxanthine inside the cell. […] Parasite viability was determined by DNA quantitation as described by Quashie and colleagues. For each condition, two independent experiments were carried out in triplicate.

[5] = infected Aotus under BCX4945 treatment

In the case of Nc1nc2c(CN3CC(O)C(CO)C3)c[nH]c2c(=O)[nH]1 (stereo not shown) [BCX4945, 4′-deaza-1′-aza-2′-deoxy-1′-(9-methylene)-Immucillin-G], the “Adenosine, cell pellet” value [1] is reported as 2.60±0.03 (0.2) nmoles/mg protein, the “Adenosine, supernatant” value [1] is reported as 0.6±0.2 (0.2) µM and the “BCX4945 level, cell pellet” value [1] is reported as 36±12 (0.07) nmoles/mg protein. For the same compound, the “BCX4945 level, supernatant” value [1] was 4.0±0.2 (0.01) µM, the “Hypoxanthine, cell pellet” value [1] was 0 nmoles/mg protein and the “Hypoxanthine, supernatant” value [1] was 0 (0.04) µM. The “Inosine, cell pellet” value [1] was 37±6 (0.04) nmoles/mg protein, the “Inosine, supernatant” value [1] was 8±3 (0.08) µM and the “MTA, cell pellet” value [1] was 0 nmoles/mg protein. For the same compound, the “MTA, supernatant” value [1] was 0 µM, the “MTI, cell pellet” value [1] was 0 nmoles/mg protein and the “MTI, supernatant” value [1] was 0 µM. For the same compound, the “Putrescine, cell pellet” value [1] was 0 nmoles/mg protein, the “Spermidine, cell pellet” value [1] was 0.060±0.003 nmoles/mg protein and the “Spermine, cell pellet” value [1] was 0.030±0.002 nmoles/mg protein. For the same compound, the “hypoxanthine in plasma throughout the treatment period” value ([2]; 50 mg kg^−1 per dose twice a day) was 0.3 ± 0.2 µM, the “2′-deoxyguanosine levels in plasma and blood cells” value ([2]; BCX4945 treatment) was “increased” and the “hypoxanthine concentration in plasma and blood cells” value [2, 5] was “below 0.3 µM”. The “inosine concentration in plasma and blood cells” value [2, 5] was “above 50 µM”, the “hypoxanthine reappearing in the blood” value ([2]; infected animals, three days after the end of three-day oral treatment) was roughly 30 µM and the bioavailability ([3]; Aotus lemurinus lemurinus) was 28%. For the same compound, the concentration at 24 h ([3]; Aotus lemurinus lemurinus, po) was roughly 1200 nM, the “plasma concentration within 1 h of the first dose” value ([3]; Aotus lemurinus lemurinus, po) was “approximately 6 µM” and the half-life ([3]; monkey) was 1.2 to 1.3 h. It also gave a half-life ([3]; monkey, iv, 10 mg/kg) of 1.3 h, a Cmax ([3]; monkey, po, 50 mg/kg) of no more than 15000 nM and a half-life ([3]; monkey, po, 50 mg/kg) of 1.2 h. For the same compound, the “rescue of growth by purine supplementation” value [4] was “Hypoxanthine, but not inosine, can bypass PNP inhibition”.
